Source: patent US20060106026A1, “4-(4-methylpiperazin-1-ylmethyl)-n-[4-pyridin-3-yl)pyrimidin-2-ylamino)phenyl]-benzamide for treating anaplastic thyroid cancer” (priority 2002, published 2006)

Tests used:
KTC-1 = conditions: KTC-1, 10 μM of SALT I, 48 hours
Method: (§1) For flow cytometry analysis, cells were fixed with 70% ethanol and wash with PBS. After pre-incubation with RNase A (0.1 mg per ml) at room temperature, cells were stained with PI (25 μg per ml). Fluorescence was measured by using FACScan flow cytometer (Becton Dickinson, Mountain View, Calif.). This experiment was performed at least three times.

1F3 = conditions: 1F3, 10 μM of SALT I, 48 hours
Method: as §1

[1] = test system: thyroid cancer cell lines
Method: as §1

TPC-1 = conditions: TPC-1, 10 μM of SALT I, 48 hours
Method: as §1

SMILES: CS(=O)(=O)O.Cc1ccc(NC(=O)c2ccc(CN3CCN(C)CC3)cc2)cc1Nc1nccc(-c2cccnc2)n1 [SALT I]
- effect on cell cycle (G2/M or S-phase changes) (KTC-1): No such changes were observed
- percentage of cells in S phase (KTC-1; DMSO 7.68): 6.53%
- percentage of cells in G2-M phase (KTC-1; DMSO 20.11): 18.7%
- percentage of cells in G1 phase (KTC-1; DMSO 72.2): 74.77%
- effect on cell cycle (G2/M or S-phase changes) (1F3): No such changes were observed
- percentage of cells in S phase (1F3; DMSO 9.4): 9.1%
- percentage of cells in G2-M phase (1F3; DMSO 27.3): 20.4%
- percentage of cells in G1 phase (1F3; DMSO 63.3): 70.5%
- DNA fragmentation in the DNA ladder assay ([1]; after 48 hours of treatment (data not shown)): no DNA fragmentation was detected
- apoptotic fraction (sub-G1) ([1]; after 48 hours of treatment, in any cell line): did not significantly increase
- effect on cell cycle (G2/M or S-phase changes) (TPC-1): No such changes were observed
- percentage of cells in S phase (TPC-1; DMSO 9.7): 9.3%
- percentage of cells in G2-M phase (TPC-1; DMSO 22.6): 13.1%
- percentage of cells in G1 phase (TPC-1; DMSO 67.8): 77.6%
